# Results reported in publication PMC7355663, “Microscale Thermophoresis as a Screening Tool to Predict Melanin Binding of Drugs” (Pharmaceutics, 2020).
# Like-named read-outs stand apart in the source and are kept apart here.
# What was measured:
# [1] = Label-free microscale thermophoresis (MST) melanin binding assay; conditions: for melanin binder category in Figure 1a: comparison of MST with traditional assay
# Method: Synthetic melanin was purchased from Sigma Aldrich (#M8631-100 mg). Melanin nanoparticles were prepared as described earlier by Fan et al., and low-binding pipette tips (Maxymum RecoveryTM pipet tips, Corning Incorporated, Salt Lake City, UT, USA) and tubes (No stick microtubes, Alpha Laboratories, Hampshire, UK) were used with both melanin and melanin nanoparticles. Briefly, melanin was dissolved into 1 N NaOH with a concentration of 2 mg/mL and stirred by vortexing. The solution was neutralized by adding an equal volume of 1 N HCl. […] After the final centrifugation, the resulting nanoparticles were suspended into a small volume of sterile water and freeze-dried for 48–72 h (ModulyoD-230, Thermo Savant, Holbrook, NY, USA), and stored at −20 °C until the binding assays.
# Melanin binding of each of the 13 model compounds was determined (for the concentrations in the assay, see Table 1). The dilution series of drugs were prepared onto a PCR plate (4titude PCR Plate, Skirted, #4ti-0740, Brooks Life Sciences, Chelmsford, MA, USA) in phosphate buffered saline (PBS, pH 7.4). […] The compound dilutions (10 µL) were transferred into 0.2 mL PCR tube strips (#TBS0201, Bio-Rad Laboratories, Inc., Hercules, CA, USA), and an equal volume of 1 mg/mL melanin nanoparticle dilution was added, resulting in a final melanin concentration of 0.5 mg/mL. At least three biological replicates (individually incubated dilution series) were prepared for each compound (n = 3–5). A reference sample containing only melanin nanoparticles and PBS (pH 7.4) was included in each assay to determine the unbound state in the thermophoresis experiment. Melanin nanoparticles were incubated with the compounds at room temperature for at least 2 h.
# After >2 h incubation, the melanin–ligand complexes were mixed gently with a pipette to ensure melanin solution homogeneity and then transferred into capillaries (Monolith NT.115 Premium capillaries, #MOK025, NanoTemper Technologies GmbH, München, Germany). The samples were analyzed with a Monolith NT.115 pico device using MO.Control Software (both from NanoTemper Technologies GmbH, München, Germany) using nano-blue excitation, LED light adjusted to 60% excitation power, and infrared laser (MST power) set to high. […] The equation is based on the Langmuir binding isotherm. […] Equation (1) is a follows:(1) f(c)=Unbound+(Bound−Unbound)×c+c(target)+Kd−(c+c(target)+Kd)^2−4c×c(target)/2c(target) where f(c) is the fraction bound at a given ligand concentration c. Unbound is either the normalized fluorescence signal (Fnorm; MST mode) or raw fluorescence counts (initial fluorescence mode) of the target alone. Bound is either the normalized fluorescence signal or raw fluorescence counts (initial fluorescence mode) of the melanin–ligand complex. Kd is the dissociation constant or binding affinity, and c (target) is the final concentration of the target in the assay.
# The normalized fluorescence is the ratio of relative fluorescence of the selected region after heating (hot region) and relative initial fluorescence before the heating (cold region, i.e., relative fluorescence values before the infrared laser was switched on). The MST traces displaying the changes in the relative fluorescence over time (heating) with the selected hot and cold regions are presented in the Supplementary Materials. In the case of ligand-induced changes in the initial raw fluorescence counts, the raw fluorescence counts prior to the heating were used (initial fluorescence mode). If the ligand-induced fluorescence changes were not observed, the normalized fluorescence signals (MST mode) were used to determine the Kd (for additional information, see the Supplementary Materials). […] Affinity Analysis Software.
# Kd determination strategies. The Kd values were tested in both initial fluorescence and the above
# described MST modes within the MO Affinity Analysis Software (Fig. S1, Table S1) and the Kd values
# [2] = parameters: method as in PMID 26741026, PMID 29859954; conditions: from previous studies, ref [11],[16], cited from earlier work; for Kd: read-out: Kd ± SE, traditional method (Sips isotherm); for n ± SE, traditional method (Sips isotherm): heterogeneity index; for Bmax ± SE, traditional method (Sips isotherm): maximum binding capacity
# melanin [3] = test: in vitro; conditions: for fraction unbound at 20 h, 1 µM: pig, pH 7.4
# Method: (§1) The traditional melanin binding assay was conducted with melanin from the porcine RPE-choroid. We used previously published methods for melanin isolation and drug binding. Fresh melanin suspension and test compound solutions were prepared before each experiment. The melanin suspension (in PBS, pH 7.4) was sonicated in a bath sonicator for 30 min (Elmasonic S 40 H, Elma Schmidbauer GmbH, Singen, Germany) before the experiment. The incubation with test compounds took place at 37 °C on a shaker (220 rpm), and the melanin concentration in the assay was 1 mg/mL (0.15 mg/well). In the control samples, PBS buffer (pH 7.4) was used instead of the melanin suspension. Three individual replicates were made for each experiment. After 20 h incubation, the samples were centrifuged at 20,000× g for 20 min, and supernatant containing the unbound ligand was collected for analysis.
# (§2) Samples having an estimated concentration of 0.5 µM or higher were analyzed with ultra-high pressure liquid chromatography (UPLC) (Acquity UPLC, Waters, Milford, MA, USA) with UV detection (Photodiode Array Detector, Waters, MA, USA). The separation was carried out on a Luna Omega Polar C18 (1.6 μm, 2.1 × 50 mm^2) column (Phenomenex) at 30 °C. Injection volume was 4 µL. Gradient mode was used for all the compounds with an acetonitrile/15 mM phosphate buffer (pH 2) mobile phase. Gradient duration was 3−5 min depending on the sample (levofloxacin, terazosin, and papaverine).
# (§3) All internal standards, namely levofloxacin D8, terazosin D8, and papaverine D3, were purchased from Toronto Research Chemicals (Toronto, ON, Canada). […] Injection volumes were 0.2 μL for terazosin, 0.3 µL for levofloxacin, and 0.15 µl for papaverine with a flow through needle injection system. The mobile phase consisted of 0.1% formic acid (Merck, Darmstadt, Germany) in ultrapure water (A) and 100% LC–MS grade acetonitrile (Honeywell, Seelze, Germany) (B). […] The gradient for levofloxacin was the same as for papaverine, but the total run time was 6 min. The flow rate was 0.3 mL/min for all the compounds.
# (§4) Mass spectrometric measurements were carried out using a Waters Xevo TQ-S triple quadruple mass spectrometer coupled with an electrospray ionization (ESI) on a positive mode for all three compounds. Optimized MS-parameters were as follows: capillary 1.5 kV (terazosin and papaverine), 3.5 kV (levofloxacin), cone voltage 80 V (terazosin) and 8 V (terazosin D8), 22 V (papaverine and papaverine D3), 28 V (levofloxacin and levofloxacin D8), source temperature 150 °C, and desolvation temperature 500 °C (terazosin) or 450 °C (papaverine and levofloxacin). Nitrogen (AGA, Helsinki, Finland) was used as the desolvation gas (1000 L·h^−1 terazosin, 800 L·h^−1 papaverine and levofloxacin) and the cone gas (150 L·h^−1), argon (AGA, Helsinki, Finland) as the collision gas. Multiple reaction monitoring (MRM) mode was employed for quantification. […] The resulting data were analyzed with Waters MassLynx V4.1 software. To consider the effect of melanin on the analyses, separate samples containing only melanin in PBS (with no test compound) were also studied.
# (§5) The binding parameters were determined with Sips isotherm (Equation (2)) as described by Manzanares et al.. B = (Bmax × [L]^n)/(Kd^n + [L]^n)(2) where B is the amount of bound drug (nmol·mg^−^1); Bmax is the maximum binding capacity (nmol·mg^−^1); [L] is the free drug concentration (µM); n is the heterogeneity index (assuming heterogeneity of the surface of the melanin particles); and Kd represents the dissociation constant (µM).
# melanin [4] = test: Prediction of unbound ligand fraction in vivo (human RPE-choroid); conditions: human
# Method: (§6) Unbound ligand fractions in vivo were calculated considering melanin binding as the only driver of nonspecific tissue binding.
# (§7) Linear regression was used to describe the relationship between the Kd values obtained with the MST and the predicted unbound ligand fractions in human RPE-choroid obtained with calculations described above.
# (§8) The Kd values obtained with MST consider only one class of binding site, whereas the Sips isotherm (the traditional binding assay) depicts different binding energies and binding sites. […] This approach is relevant to evaluate the melanin binding.
# [5] = as above; conditions: class by predicted fraction unbound in vivo, human RPE-choroid
# Method: as §6, §7, §8
# [6] = Traditional melanin binding assay (equilibrium binding, Sips isotherm); conditions: for Target Capacity ± SE, traditional method (Sips isotherm): Bmax multiplied with 0.5 mg/mL melanin concentration of the MST assay; for n ± SE, traditional method (Sips isotherm): heterogeneity index; for n ± SE, traditional method (Sips isotherm) / Bmax ± SE, traditional method (Sips isotherm) / Kd: 1 mg/mL melanin, PBS pH 7.4, 37 °C; for Bmax ± SE, traditional method (Sips isotherm): maximum binding capacity; for Kd: read-out: Kd ± SE, traditional method (Sips isotherm)
# Method: as §1, §2, §3, §4, §5
# [7] = human RPE-choroid (predicted), 34.8 mg/mL melanin
# [8] = 0.5 mg/mL (12.5 µM) melanin nanoparticles, PBS pH 7.4, room temperature, 68% confidence, initial fluorescence mode for compounds marked *, otherwise MST mode, read-out: Kd ± Kd Confidence (MST)
# [9] = Table S2, normalized fluorescence, 60% excitation power, read-out: Kd, MST mode (Fnorm)
# [10] = Table S2, raw fluorescence counts before heating, 60% excitation power, read-out: Kd, initial fluorescence mode (converted)
SMILES,fraction unbound (melanin [3]),fraction unbound at 1 µM (melanin [4]; [7]),Melanin binding class based on traditional assay [5],"Kd [1, 8] [µM]","Kd [1, 9] [µM]","Kd [1, 10] [µM]","Target Capacity ± SE, traditional method (Sips isotherm) [6] [µM]","n ± SE, traditional method (Sips isotherm) [2]","Bmax ± SE, traditional method (Sips isotherm) [2] [nmol/mg]","fraction unbound at 20 h, 1 µM (melanin [3])",other results
O=C(O)Cc1ccccc1Nc1c(Cl)cccc1Cl [Diclofenac],–,–,–,–,–,–,–,–,–,–,"Kd ± Kd Confidence (MST) ([1]; 0.5 mg/mL (12.5 µM) melanin nanoparticles, PBS pH 7.4, room temperature, 68% confidence, initial fluorescence mode for compounds marked *, otherwise MST mode): Kd could not be determined; Melanin binding class based on Kd from MST ([1]; class by Kd (MST)): low; melanin binder category in Figure 1a [1]: Weak melanin binders; Kd ± SE, traditional method (Sips isotherm) [2]: no binding ^1"
C=C[C@H]1C[N@@]2CC[C@H]1C[C@@H]2[C@@H](O)c1ccnc2ccc(OC)cc12 [Quinidine],0.16,–,–,–,–,–,–,–,–,–,–
CC(C)(C)NCC(O)COc1cccc2c1CC(O)C(O)C2 (stereo not drawn) [Nadolol],–,0.08,intermediate,200 ± 33,260,200,34 ± 12,0.94 ± 0.05,68 ± 24,–,"Fraction Unbound in Vitro (%) (1 mg/mL Melanin) ([6]; pig, 20 h, 1 µM, pH 7.4): 78%; Kd [2]: 340 ± 200 µM"
COc1ccc(Cc2nccc3cc(OC)c(OC)cc23)cc1OC [Papaverine],–,–,high,28 ± 23,93,28,33 ± 4,–,–,0.15,"fraction unbound at 1 µM (melanin [4]): 0.0013; n ± SE, traditional method (Sips isotherm) ([6]; 20 h): 0.715 ± 0.015; Bmax ± SE, traditional method (Sips isotherm) ([6]; 20 h): 66 ± 8 nmol/mg; Kd ([6]; 20 h): 66 ± 18 µM"
CC(C)NCC(O)COc1cccc2ccccc12 (stereo not drawn) [Propranolol],–,0.009,high,–,–,–,88 ± 30,0.89 ± 0.05,176 ± 60,0.32,–
CCN(CC)CCCC(C)Nc1ccnc2cc(Cl)ccc12 (stereo not drawn) [Chloroquine],–,1.2e-05,extreme,0.8,0.8,–,190 ± 20,0.605 ± 0.012,380 ± 40,0.0041,Kd [2]: 76 ± 23 µM
COc1cc2nc(N3CCN(C(=O)C4CCCO4)CC3)nc(N)c2cc1OC (stereo not drawn) [Terazosin],–,0.00012,extreme,29 ± 28,96,29,56 ± 6.5,–,–,0.029,"n ± SE, traditional method (Sips isotherm) ([6]; 20 h): 0.64 ± 0.018; Bmax ± SE, traditional method (Sips isotherm) ([6]; 20 h): 112 ± 13 nmol/mg; Kd ([6]; 20 h): 46 ± 16 µM"
CC1(C)S[C@@H]2[C@H](NC(=O)Cc3ccccc3)C(=O)N2[C@H]1C(=O)O [Penicillin G],0.092,–,–,–,–,–,–,–,–,–,fraction unbound (melanin [4]; [7]): 0.0029
CN(Cc1cnc2nc(N)nc(N)c2n1)c1ccc(C(=O)N[C@@H](CCC(=O)O)C(=O)O)cc1 [Methotrexate],0.98,–,low,3500,> 10000,3500,–,–,–,–,"fraction unbound (melanin [4]; [7]): 0.54; melanin binder category in Figure 1a [1]: Weak melanin binders; Kd ± SE, traditional method (Sips isotherm) [2]: no binding ^1"
